Experimental data published in patent publication US11180521B2, “Nicotinamide riboside analogs, pharmaceutical compositions, and uses thereof” (Metro International Biotech, LLC, priority 2018, dated 2021).

Experiments:
Format in all cases: in vivo, C57BL/6 mice
[1] = PK/PD duration of effect study, single oral gavage dose: administered compound level in liver; design: key to transcyclohexyl NaR dimer concentration: BQL: Below quantitation limit; BDL: Below Detection Limit, No Peak Detected
Description: (§1) Transcyclohexyl nicotinic acid riboside (NaR) dimer was administered by oral gavage at a dose of 500 mg/kg in an Ethanol/PBS, pH 7.4/PEG400 (10/30/60) vehicle. The dosing volume was 5 ml/kg at a solution concentration of 100 mg/ml. The solution concentration was increased for the presence of counterion.
(§2) Animals were fasted for 16 hours prior to dosing. Samples were collected pre-dose and at 0.25, 0.75, 1, 2, 4, 8 and 24 hr post dosing. Following euthanasia, the entire liver and skeletal muscle (gastrocnemius with attached soleus muscle, bilateral) were rinsed with 0.9% saline, and frozen for later bioanalysis. Samples were maintained frozen at −80° C. until bioanalysis.
(§3) Samples were thawed, homogenized, extracted and analyzed by LC-MS on the same day. The LC used was a Shimadzu Nexera UPLC, and the mass spectrometer was an AB Sciex Qtrap 6500. Specimens were analyzed for levels of administered compound (transcyclohexyl NaR dimer), as well as for levels of NAD, NAAD, NAM, and NMN by the method of standard addition, to detect alterations from the basal levels of the analytes. Calibration standards for quantifying administered compound were prepared using transcyclohexyl NaR dimer in mouse liver or skeletal muscle homogenates. Corresponding standards for quantifying other metabolites were also prepared. Data are calculated as the mean concentration from n=6 animals per time point.

[2] = PK/PD duration of effect study, single oral gavage dose: administered compound level in skeletal muscle; design: key to transcyclohexyl NaR dimer concentration: BQL: Below quantitation limit; BDL: Below Detection Limit, No Peak Detected; conditions: pre-dose BQL
Description: as §1, §2, §3

[3] = system: NAD, NAAD, NAM, and NMN levels in skeletal muscle; assay: PK/PD duration of effect study, single oral gavage dose: NAD, NAAD, NAM and NMN levels in skeletal muscle; design: key to NAAD concentration: BQL: Below quantitation limit; BDL: Below Detection Limit, No Peak Detected; conditions: for NAAD concentration: pre-dose BDL
Description: as §1, §2, §3

[4] = 0.25 hr after 500 mg/kg oral gavage
[5] = 1 hr after 500 mg/kg oral gavage
[6] = 2 hr after 500 mg/kg oral gavage

CC(=O)OC[C@H]1O[C@@H]([n+]2cccc(C(=O)O[C@H]3CC[C@H](OC(=O)c4ccc[n+]([C@@H]5O[C@H](COC(C)=O)[C@@H](OC(C)=O)[C@H]5OC(C)=O)c4)CC3)c2)[C@H](OC(C)=O)[C@@H]1OC(C)=O [transcyclohexyl NaR dimer, Transcyclohexyl nicotinic acid riboside (NaR) dimer]
% AUC Extrap of transcyclohexyl NaR dimer ([1]; 500 mg/kg oral gavage): 0.00%
AUC(0-x) of transcyclohexyl NaR dimer ([1]; 500 mg/kg oral gavage): 3.05 µg·h/g
AUC(0-∞) of transcyclohexyl NaR dimer ([1]; 500 mg/kg oral gavage): 3.05 µg·h/g
transcyclohexyl NaR dimer concentration ([1]; 0.25 hr after 500 mg/kg oral gavage, pre-dose BQL): 0.0125 mmol/kg
transcyclohexyl NaR dimer concentration ([1]; 0.75 hr after 500 mg/kg oral gavage, pre-dose BQL): 0.000387 mmol/kg
transcyclohexyl NaR dimer concentration ([1]; 1 hr after 500 mg/kg oral gavage, pre-dose BQL): 0.000275 mmol/kg
transcyclohexyl NaR dimer concentration ([1]; 2 hr after 500 mg/kg oral gavage, pre-dose BQL): 0.0000706 mmol/kg
transcyclohexyl NaR dimer concentration ([1]; 4 hr after 500 mg/kg oral gavage, pre-dose BQL): BQL
transcyclohexyl NaR dimer concentration ([1]; 8 hr after 500 mg/kg oral gavage, pre-dose BQL): BQL
transcyclohexyl NaR dimer concentration ([1]; 24 hr after 500 mg/kg oral gavage, pre-dose BQL): BQL
Cmax ([1]; C57BL/6, mouse, 500 mg/kg oral gavage, read-out: Cmax of transcyclohexyl NaR dimer): 10600 ng/g
Tmax ([1]; C57BL/6, mouse, 500 mg/kg oral gavage, read-out: tmax of transcyclohexyl NaR dimer): 15 min
half-life ([1]; C57BL/6, mouse, 500 mg/kg oral gavage, regression points 0.75, 1, 2 h, read-out: t½ of transcyclohexyl NaR dimer (converted)): 30.5 min
concentration at 0.25 h ([1]; C57BL/6, mouse, 0.25 hr after 500 mg/kg oral gavage, pre-dose BQL, read-out: transcyclohexyl NaR dimer concentration): 10600 ng/g
concentration at 0.75 h ([1]; C57BL/6, mouse, 0.75 hr after 500 mg/kg oral gavage, pre-dose BQL, read-out: transcyclohexyl NaR dimer concentration): 327 ng/g
concentration at 1 h ([1]; C57BL/6, mouse, 1 hr after 500 mg/kg oral gavage, pre-dose BQL, read-out: transcyclohexyl NaR dimer concentration): 232 ng/g
concentration at 2 h ([1]; C57BL/6, mouse, 2 hr after 500 mg/kg oral gavage, pre-dose BQL, read-out: transcyclohexyl NaR dimer concentration): 60 ng/g
transcyclohexyl NaR dimer concentration [2, 4]: 0.0142 mmol/kg
transcyclohexyl NaR dimer concentration [2, 5]: 0.00109 mmol/kg
transcyclohexyl NaR dimer concentration [2, 6]: BQL
transcyclohexyl NaR dimer concentration ([2]; 4 hr after 500 mg/kg oral gavage): BQL
transcyclohexyl NaR dimer concentration ([2]; 8 hr after 500 mg/kg oral gavage): BQL
transcyclohexyl NaR dimer concentration ([2]; 24 hr after 500 mg/kg oral gavage): BQL
concentration at 0.25 h ([2]; C57BL/6, mouse, 0.25 hr after 500 mg/kg oral gavage, read-out: transcyclohexyl NaR dimer concentration): 12000 ng/g
concentration at 1 h ([2]; C57BL/6, mouse, 1 hr after 500 mg/kg oral gavage, read-out: transcyclohexyl NaR dimer concentration): 921 ng/g
NMN concentration ([3]; 0.25 hr after 500 mg/kg oral gavage, pre-dose 0.00225): 0.002 mmol/kg
NAM concentration ([3]; 0.25 hr after 500 mg/kg oral gavage, pre-dose 0.159): 0.161 mmol/kg
NMN concentration ([3]; 0.25 hr after 500 mg/kg oral gavage, pre-dose 0.752): 0.667 µg/g
NAD concentration ([3]; 0.25 hr after 500 mg/kg oral gavage, pre-dose 0.781): 0.826 mmol/kg
NAM concentration ([3]; 0.25 hr after 500 mg/kg oral gavage, pre-dose 19.4): 19.7 µg/g
NAD concentration ([3]; 0.25 hr after 500 mg/kg oral gavage, pre-dose 518): 548 µg/g
NAAD concentration [3, 4]: BDL
NMN concentration ([3]; 0.75 hr after 500 mg/kg oral gavage, pre-dose 0.00225): 0.00196 mmol/kg
NAM concentration ([3]; 0.75 hr after 500 mg/kg oral gavage, pre-dose 0.159): 0.208 mmol/kg
NMN concentration ([3]; 0.75 hr after 500 mg/kg oral gavage, pre-dose 0.752): 0.656 µg/g
NAD concentration ([3]; 0.75 hr after 500 mg/kg oral gavage, pre-dose 0.781): 0.861 mmol/kg
NAM concentration ([3]; 0.75 hr after 500 mg/kg oral gavage, pre-dose 19.4): 25.3 µg/g
NAD concentration ([3]; 0.75 hr after 500 mg/kg oral gavage, pre-dose 518): 571 µg/g
NAAD concentration ([3]; 0.75 hr after 500 mg/kg oral gavage): BDL
NMN concentration ([3]; 1 hr after 500 mg/kg oral gavage, pre-dose 0.00225): 0.00173 mmol/kg
NAM concentration ([3]; 1 hr after 500 mg/kg oral gavage, pre-dose 0.159): 0.184 mmol/kg
NMN concentration ([3]; 1 hr after 500 mg/kg oral gavage, pre-dose 0.752): 0.579 µg/g
NAD concentration ([3]; 1 hr after 500 mg/kg oral gavage, pre-dose 0.781): 0.720 mmol/kg
NAM concentration ([3]; 1 hr after 500 mg/kg oral gavage, pre-dose 19.4): 22.4 µg/g
NAD concentration ([3]; 1 hr after 500 mg/kg oral gavage, pre-dose 518): 478 µg/g
NAAD concentration [3, 5]: BDL
NMN concentration ([3]; 2 hr after 500 mg/kg oral gavage, pre-dose 0.00225): 0.00191 mmol/kg
NAM concentration ([3]; 2 hr after 500 mg/kg oral gavage, pre-dose 0.159): 0.0918 mmol/kg
NMN concentration ([3]; 2 hr after 500 mg/kg oral gavage, pre-dose 0.752): 0.639 µg/g
NAD concentration ([3]; 2 hr after 500 mg/kg oral gavage, pre-dose 0.781): 0.875 mmol/kg
NAM concentration ([3]; 2 hr after 500 mg/kg oral gavage, pre-dose 19.4): 11.2 µg/g
NAD concentration ([3]; 2 hr after 500 mg/kg oral gavage, pre-dose 518): 581 µg/g
NAAD concentration [3, 6]: BDL
NMN concentration ([3]; 4 hr after 500 mg/kg oral gavage, pre-dose 0.00225): 0.00222 mmol/kg
NAM concentration ([3]; 4 hr after 500 mg/kg oral gavage, pre-dose 0.159): 0.166 mmol/kg
NMN concentration ([3]; 4 hr after 500 mg/kg oral gavage, pre-dose 0.752): 0.740 µg/g
NAD concentration ([3]; 4 hr after 500 mg/kg oral gavage, pre-dose 0.781): 0.726 mmol/kg
NAM concentration ([3]; 4 hr after 500 mg/kg oral gavage, pre-dose 19.4): 20.2 µg/g
NAD concentration ([3]; 4 hr after 500 mg/kg oral gavage, pre-dose 518): 482 µg/g
